Consider two compounds from PMC7311950, “Potent Tetrahydroquinolone Eliminates Apicomplexan Parasites” (Frontiers in Cellular and Infection Microbiology, 2020).

Read-outs that look alike come from different tables or passages of the source. Where only a bound is given, the exact number is not on record here.

Series [1] in a line: Metabolic stability in mouse liver microsomes. The note with it: for half-life: mouse, liver microsomes. On the procedure: The effects of changing R1 as 7-Et, 7-Me, 6-CF3, or 6-Me on activity against RH strain tachyzoites, kinetic solubility, and metabolic stability were compared. Kinetic solubility and metabolic stability in human or murine liver microsomes were measured. The hERG (human Ether-à-go-go-Related) liability was also determined. The hERG gene (KCNH2) encodes a protein Kv11.1, the alpha subunit of a potassium ion channel. This channel conducts the rapid component of the delayed rectifier potassium current, IKr, which is critical for repolarization of cardiac action potentials. A reduction in hERG currents from adverse drug effects can lead to long QT interval syndromes. These syndromes are characterized by action potential prolongation, lengthening of the QT interval on surface EKG, and an increased risk for “torsade de pointes” arrhythmias and sudden death. The MDCK-MDR1 Permeability Assay was also performed. MDCK-MDR1 refers to the ability of a compound to permeate across membranes of MDCK-MDR1 (Madin Darby canine kidney [MDCK] cells with the MDR1 gene [ABCB1], the gene encoding for the efflux protein, P-glycoprotein (P-gp)) in vitro. Assessing transport in both directions (apical to basolateral and basolateral to apical) across the cell monolayers enables an efflux ratio to be determined. […] This provides a prediction of blood brain barrier (BBB) penetration potential/permeability and efflux ratio. Effect in CACO-2 (Colon Adenocarcinoma cells) as a permeability assay and on cytochrome P450 (CYP 450) were also determined. CYP enzymes catalyze oxidative biotransformation (phase 1 metabolism) of most drugs. CYP enzymes, bind to membranes in a cell (cyto) and contain a heme pigment (chrome and P) that absorbs light at a wavelength of 450 nm when exposed to carbon monoxide. Metabolism of a drug by CYP enzymes is a major source of variability in drug effect. These were measured by Chem Partners. The relative effect on HFF and parasite enzymes also were compared.
In vitro absorption, distribution, metabolism, excretion, and toxicity (ADMET) analyses of the THQ compounds were outsourced to ChemPartner Shanghai Ltd. ELQ-271 (synthesized in-house) was tested as a comparison.
A general note: Liver microsomes are a subcellular fraction often used to study metabolism.

Series [2] deals with P. falciparum strains D6, TM91-C235, W2, C2B. Briefly: Malaria SYBR Green I-Based Fluorescence (MSF) assay. The series is classed as cell-based. The note with it: Plasmodium falciparum. On the procedure:
Malaria potency testing in vitro was performed using 4 different P. falciparum strains, D6, TM91-C235, W2, and C2B. The D6 strain is a drug sensitive strain from Sierra Leone, the TM91-C235 strain is a multi-drug resistant strain from Thailand, the W2 strain is a chloroquine resistant strain from Thailand, and the C2B strain is a multi-drug resistant strain with resistance against atovaquone. These assays were performed as described below.
Compound activity against P. falciparum, was tested using the Malaria SYBR Green I–Based Fluorescence (MSF) Assay. The complete method for performing this microtiter assay is described in previous work published by Plouffe et al. ([2008]) and Johnson et al. ([2007]). In brief, this assay uses the binding of the fluorescent dye SYBR Green I to malaria DNA to measure parasite growth in the presence of 2-fold diluted experimental or control. The relative fluorescence of the intercalated SYBR Green I proportional to parasite growth, and inhibitory compounds will result in lower observed fluorescence compared to untreated parasites.

A further series has as its system HepG2 cells. Description: Cytotoxicity with HepG2 cells. The series is classed as cell-based. The note with it: Homo sapiens. As for the experimental part:
Toxicity studies also were performed with HepG2 cells (human liver cancer immortal cell line derived from the liver tissue of a […]) in parallel with the studies of P. falciparum, with inhibitors in vitro, as described in McPhillie et al. ([2016]).

The subject of series [3] is T. gondii mitochondrial membrane potential. Description: T. gondii mitochondrial membrane potential, safranine method. The series is classed as cell-based, Toxoplasma gondii. The note with it: permeabilized T. gondii tachyzoites, safranin O. As for the experimental part: The mitochondrial membrane potential was measured by the safranine method according to Vercesi et al. ([1998]). Freshly egressed T. gondii tachyzoites were filtered and washed twice with intracellular buffer (125 mM sucrose, 65 mM KCl, 10 mM HEPES-KOH buffer, pH 7.2, 1 mM MgCl2, and 2.5 mM potassium phosphate). After washing, the parasites were resuspended in the same buffer at 10^9/mL. An aliquot of 50 μL of this suspension was added to a cuvette containing Safranin O, 2.5 μM and Succinate 1 mM in final volume of 2 mL of the intracellular buffer. The fluorescence was measured with a Hitachi 7000 spectrofluorometer with settings Ex. 495/Em. 586. Once the baseline fluorescence was stable, 30 μM digitonin was added to permeabilize the parasites. Eighty five seconds after permeabilization, the THQ derivatives, dissolved in DMSO, were added. Five micromolars of FCCP (Carbonyl cyanide-4-(trifluoromethoxy) phenylhydrazone) was used as an uncoupler reference for calculations and its effect was considered 100%. We used similar conditions for measuring the mitochondrial membrane potential of mammalian cells with the following changes: the mammalian cells were resuspended at 10^8/mL. We also used 50 μL of this suspension for each experiment in a total volume of 2 mL. The substrate used for mammalian cells was 5 mM glutamate and 5 mM malate. A higher concentration of digitonin (50 μM) was used to permeabilize the mammalian cells. The compounds were added at ~400 s after permeabilization. Each experiment was repeated at least three times in duplicates. Statistical analysis, unpaired student t-test, was performed using GraphPad Prism 8.0 (GraphPad Software, Inc., San Diego, CA).
Mitochondrial membrane potential measurements were performed with permeabilized T. gondii tachyzoites in suspension using safranin O, which loads into polarized membranes [see section Materials and Methods in the Supplemental Materials (Vercesi et al., [1998])]. T. gondii tachyzoites were permeabilized with digitonin to allow the mitochondrial substrate succinate to cross the membrane and energize the mitochondrion. The fluorescence of safranin O, which loads into energized mitochondria was used to measure the membrane potential. The energized state of the mitochondrion is observed by a decrease in fluorescence (Figures 3A,C,E). Trifluoromethoxy carbonylcyanide phenylhydrazone (FCCP) was used to depolarize the membrane, which is observed as an increase in fluorescence (Figures 3A,B). JAG21 depolarized the membrane potential even at concentrations as low as 2 nM (Figures 3C,D). JAG21 and Atovaquone had similar effects on the mitochondrial membrane potential (Figure 3D). […]

The mark [4] stands for this setting: T1/2 (M), predicted half-life in mouse liver microsomes, Figure 1A, min in Figure 2E for the same values.
Where [5] appears, read: C2B, multi-drug resistant strain with resistance against atovaquone, read-out: SYBR Green C2B IC50.
The mark [6] stands for this setting: D6, drug sensitive strain, read-out: SYBR Green D6 IC50.
Setting [7] is: TM91-C235, multi-drug resistant strain, read-out: SYBR Green C235 IC50.
Where [8] appears, read: W2, chloroquine resistant strain, read-out: SYBR Green W2 IC50.
Where [9] appears, read: dose response testing, read-out: HEP G2 IC50.

Take `Cc1[nH]c2c(c(=O)c1-c1ccc(Oc3ccc(OC(F)(F)F)cc3)cc1)CCCC2` [JAG21, 2-Methyl-3-(4-(4-(Trifluoromethoxy)Phenoxy)Phenyl)-5,6,7,8-Tetrahydroquinolin-4-One]: the half-life in series [1] (setting [4]) and in series [1] (half-life in mouse liver microsomes) was 1.68 h in each case. Moreover, the Mouse liver microsomes in series [1] (stability, Figure 2E) is given as 101.09 min. Besides, the IC50 was 40.4 nM in series [2] (setting [5]); 14 to 61 nM in series [2] (D6, TM91-C235, W2 and C2B, range over strains, read-out: IC50 values against drug sensitive and resistant strains); 14.3 nM in series [2] (setting [6]); 61.6 nM in series [2] (setting [7]); 55.2 nM in series [2] (setting [8]); 17700 nM in the series on HepG2 cells (setting [9]). Further, in the series with HepG2 cells (supplement summary, read-out: IC50, human HepG2 cells), the IC50 was over 17000 nM. Further, the IC90 in series [2] (supplement summary, read-out: IC90, drug resistant Plasmodium falciparum in vitro) was under 50 nM. For the same compound, the “concentration that depolarized the mitochondrial membrane potential” value in series [3] is listed as at most 2 nM.
In series [1], `Cc1[nH]c2c(c(=O)c1-c1ccc(Oc3ccc(Cl)cc3)cc1)CCCC2` [JAG50] came in with a Mouse liver microsomes of 68.55 min. Besides, in series [1] (setting [4]), the half-life was 1.14 h. In addition, the IC50 was 36.4 nM in series [2] (setting [5]); 46.6 nM in series [2] (setting [6]); 69.1 nM in series [2] (setting [7]); 31.4 nM in series [2] (setting [8]); 7100 nM with HepG2 cells (setting [9]). For the same compound, the “concentration that depolarized the mitochondrial membrane potential” value in series [3] was at least 200 nM.

As usually defined, the half-life is the time needed for the level to fall by half in the phase considered. As usually defined, the IC50 is the concentration needed to halve the response being measured. Broadly, the IC90 is the point of the concentration-response curve where the effect stands at 90%.
